One data set has as its system DENV2. To be noted: cell-based assay; cited from earlier work.
Data set [1] in a line: Cytotoxicity study (CellTiter 96 AQueous One) in LLC/MK2 cells. It counts as cell-based. The conditions noted are these: rhesus monkey; for viability at 48 h, 10 µM / viability at 48 h, 25 µM: read-out: Cells viability (%, means ± SEM) LLC/MK2. As to the method: (§1) The cytotoxicity of active compounds was tested on LLC-MK2, Vero, THP-1, HEK-293, HepG2 and C6/36 cell lines. Each cell line was seeded at 1 × 10^4 cells per well in 96-well plates and incubated overnight. The compounds were added at the indicated concentrations and the cells were incubated for 48 h, unless indicated otherwise. Cell viability was analyzed using CellTiter 96® AQueous One Solution Cell Proliferation Assay kit (Promega, Wisconsin-Madison, USA) according to manufacturer’s protocol. The plate was read at the A 450 in a VICTORTM × 3 microplate reader (PerkinElmer, Massachusetts, USA). Percent cell viability in compound-treated wells was calculated using reference DMSO-treated cells as a 100% cell viability control. The CC50 values of LLC/MK2 cells were calculated using nonlinear regression analysis. Results were reported as means and standard error of the means (SEM) of CC50 values of three independent experiments in which each drug concentration was tested in triplicate.

Data set [2] in a line: Cytotoxicity study (CellTiter 96 AQueous One) in THP-1 cells. It counts as cell-based. To be noted: human, read-out: Cells viability (%, means ± SEM) THP-1. The protocol: as §1
Data set [3] is described as follows: Cytotoxicity study (CellTiter 96 AQueous One) in HepG2 cells. It counts as cell-based. The conditions noted are these: human, read-out: Cells viability (%, means ± SEM) HepG2. The protocol: as §1
Data set [4] in a line: Cytotoxicity study (CellTiter 96 AQueous One) in Vero cells. It counts as cell-based. To be noted: African green monkey, 48 h, read-out: Cells viability (%, means ± SEM) Vero. The protocol: as §1
The next data set concerns Vero cells. The data set is described as above. Format: cell-based. The conditions noted are these: 10 and 25 µM; in words. As to the method:
as §1

Data set [5] can be described thus: Cytotoxicity study (CellTiter 96 AQueous One) in HEK-293 cells. It counts as cell-based. To be noted: human, read-out: Cells viability (%, means ± SEM) HEK-293. The protocol: as §1
Another data set relates to DENV2 NGC. Put plainly: Primary screening: compounds added to DENV2 infected LLC/MK2 cells, plaque titration of culture supernatants. Format: cell-based, Dengue virus. To be noted: for inhibition of virus production: 10 μM and 25 μM, summary of Table 1; for inhibition at 10 µM / inhibition at 25 µM: Dengue virus, DENV2, LLC-MK2, read-out: DENV2 inhibition (%, means ± SEM). As to the method: In this study, we selected 8 flavonoid derivatives (Fig. 1) and tested their effect on DENV2 NGC in a LLC/MK2 cell-based system. Briefly, the compounds at final concentrations of 10 μM and 25 μM in DMSO were added to DENV2 infected LLC/MK2 cells and the effect on viral particle production was measured by plaque titration of the culture supernatants. […] We also tested cytotoxicity of FV13, FV14, and CH1 to verify the viral inhibition in LLC/MK2 cells (Table 2). The viabilities of FV13 treated cells were 81.00 ± 2.69% and 59.40 ± 2.42%, at 10, and 25 µM respectively, whereas the values for FV14 treated cells were 60.24 ± 3.31% and 60.86 ± 3.57%. We also examined Vero, THP-1, HepG2, and HEK-293 cell viabilities in the presence of selected compounds (Table 2).
LLC/MK2 cells were seeded at 5 × 10^4 cells into each well of 24-well plate and incubated overnight at 37 °C under 5% CO2. Cells were infected with DENV2 at the multiplicity of infection (M.O.I.) of 0.1, unless indicated otherwise, for 1 h with gentle rocking every 15 min. Cells were washed with phosphate buffer saline (PBS) and incubated with 1 ml of MEM medium supplemented with 1% FBS as previously described. The compounds were prepared in dimethylsulfoxide (DMSO) at the indicated concentrations before addition to viral infected cells. Supernatants were collected after 5 day incubation and analyzed by plaque titration. In primary screening, DMSO-treated cells served as the untreated control. Compounds that inhibited virus production by ≥90% were selected for further characterization.

On the set-up of data set [6]: method as in PMID 27098862, PMID 19397994. The conditions noted are these: animals and humans; in words; cited from earlier work.
Data set [7] can be described thus: Cytotoxicity study, summary statements over human-derived cell lines. It counts as cell-based. To be noted: HepG2 and HEK-293 cells, THP-1, HepG2, HEK-293, 10 and 25 µM, Table 2. As to the method:
as §1

For another data set, the system named is LLC/MK2 cells. The data set can be described thus: Cytotoxicity study (CellTiter 96 AQueous One) in LLC/MK2 cells. Format: cell-based. The conditions noted are these: LLC/MK2 cell viability at 120 h versus 48 h; in words. The protocol: as §1
Another data set has as its system DENV4 (c0036). Put plainly: Antiviral efficacy (EC50) in virus infected LLC/MK2 cells, plaque assay. It counts as cell-based, Dengue virus.
The test system of another data set is DENV1 (16007). The data set is described as above. Format: cell-based, Dengue virus. The conditions noted are these: Dengue virus, DENV1, LLC-MK2.
A further data set has as its system ZIKV (SV0010/15). Described as above. It counts as cell-based, Zika virus.
For another data set, the system named is DENV3 (16562). Described as above. Format: cell-based, Dengue virus.
The subject of another data set is DENV2 (NGC). The description is as above. Format: cell-based, Dengue virus.
In data set [8] the test system is BHK-21/DENV2 replicon cells. Put plainly: Replicon inhibition assay, RT-qPCR of replicon RNA. Format: cell-based. To be noted: Dengue virus, DENV2, BHK-21, 72 h, read-out: inhibition of DENV2 replicon replication. As to the method: Next, we studied FV13 inhibition in a DENV2 replicon replication system to investigate whether translation and replication could be implicated as drug targets. BHK-21/DENV2 replicon cells[28] were treated with 5 and 10 µM FV13 and incubated for 72 h before measuring replication efficiency by quantifying replicon RNA. Ribavirin, a known dengue virus replication inhibitor[29], was used as a positive control.
After supernatant collection, the remaining cells in experimental plates were extracted for viral RNAs using TRIzol reagent (Invitrogen, California, USA) according to the manufacturer’s protocol. The samples were loaded into the Direct-zol™ RNA MiniPrep (Zymo research, California, USA) and quantified by Nanodrop spectrophotometry (Eppendorf, New York, USA). The RT-qPCR was performed with a Step-OnePlus Real-Time PCR System (Applied Biosystems, California, USA.) with 1 × Power SYBRGreen PCR Master Mix, 400 nM each of capsid primers[40] or 250 nM of NS1 primers[41] and 0.1 µg of total RNA. The reactions were then cycled at 48 °C 30 min and 95 °C 10 min, followed by 45 cycles of 95 °C for 20 s (denaturation), 55 °C for 30 s (annealing), 72 °C for 30 s (extension). Each sample was analyzed in triplicated and results were confirmed by two independent experiments.
BHK-21 cells expressing a DENV2 replicon (BHK-21/DENV2) were maintained in minimal essential medium (MEM) supplemented with 10% fetal bovine serum (FBS), and 0.3 mg/ml G418 (Bio Basic Canada, Ontario, Canada). The protocol was adapted from Boonyasuppayakorn et al., 2014 [28]. Briefly, cells (5 × 10^4/well) were seeded into 24-well plates and were incubated for 1 day at 37 °C in a humidified CO2 chamber followed by addition of the compounds in 1% DMSO at final concentrations of 5 µM and 10 µM. DMSO (1%) alone was used as the no-inhibitor control (0% inhibition) and the reference compound was ribavirin (TargetMol, Massachusetts, USA) at a final concentration of 5 µM or 10 µM. Cells were incubated at 37 °C for 72 h and lysed to quantify DENV2 replicons by RT-qPCR. Data were reported as percent inhibition compared with ribavirin, as a reference compound and DMSO, 0% inhibition. Results were confirmed by three independent experiments.
For orientation: Replicon systems follow genome replication, usually without infectious particles.

Experimental for DENV1 (16007): (§2) Compound at various concentrations were added to virus infected LLC/MK2 cells and viral titers were accessed by plaque titration of supernatants as previously described.
(§3) LLC/MK2 cells were seeded at 5 × 10^4 cells into each well of 24-well plate and incubated overnight at 37 °C under 5% CO2. Cells were infected with DENV2 at the multiplicity of infection (M.O.I.) of 0.1, unless indicated otherwise, for 1 h with gentle rocking every 15 min. Cells were washed with phosphate buffer saline (PBS) and incubated with 1 ml of MEM medium supplemented with 1% FBS as previously described. The compounds were prepared in dimethylsulfoxide (DMSO) at the indicated concentrations before addition to viral infected cells. Supernatants were collected after 5 day incubation and analyzed by plaque titration[9].
(§4) Compounds were prepared in DMSO at 8–12 different concentrations and added to virus infected cells as previously described. Supernatants were collected and the EC50 values were calculated from nonlinear regression analysis.
Experimental for DENV2 (NGC): as §2, §3, §4
Experimental for DENV3 (16562): as §2, §3, §4
Experimental for DENV4 (c0036): as §2, §3, §4
Experimental for ZIKV (SV0010/15): as §2, §3, §4

`O=C(O)[C@H]1O[C@@H](Oc2cc3oc(-c4ccccc4)cc(=O)c3c(O)c2O)[C@H](O)[C@@H](O)[C@@H]1O` [Baicalin]: the EC50 (as a rule, the concentration that produces a half-maximal response) in the data set with DENV2 is 30.2 µM.

With `COc1ccc(/C=C/C(=O)c2ccccc2O)cc1` [CH1], the viability at 48 h, 10 µM is 61.5 ± 6.43% in data set [1]; 93.1 ± 4.99% in data set [2]; 71 ± 1.71% in data set [3]; greater than 100% in [4]; 98.3 ± 2.95% in [5]. The viability at 48 h, 25 µM in data set [1] worked out at 59.1 ± 7.42%; in data set [2], 84.8 ± 2.38%; in data set [3], 35.3 ± 1.34%; in data set [4] it was 80.4 ± 9.81%; in [5] it was 41.3 ± 0.54%. The “sensitivity of Vero cells to the compound” value in the data set on Vero cells is “not”. Besides, the “inhibition of virus production” value in the data set with DENV2 NGC is greater than 99%. Besides, the inhibition (as a rule, how much of the control response was suppressed) at 10 µM in the data set on DENV2 NGC came to 99.78 ± 0.08%. Moreover, in the data set on DENV2 NGC, the inhibition at 25 µM was determined as 99.75 ± 0.15%.

For `O=C(/C=C/c1ccc(O)cc1)c1ccccc1O` [CH2], in the data set on DENV2 NGC, the inhibition at 10 µM came to 52 ± 8.49% and the inhibition at 25 µM turned out to be 76 ± 4.24%.

With `COc1cc(O)c2c(c1)OC(c1ccccc1)CC2=O` (stereo not shown) [FN2], in the data set with DENV2 NGC, the inhibition at 10 µM was determined as 62 ± 2.45% and the inhibition at 25 µM was 85 ± 3%.

Regarding `O=c1cc(-c2ccccc2)oc2cc(O)cc(O)c12` [FV2, 5,7-dihydroxyflavone], the oral bioavailability entry in data set [6] is given as “poor”. In the data set with DENV2 NGC, the inhibition at 10 µM was determined as 43 ± 3% and the inhibition at 25 µM is 92.8 ± 3.06%.

Take `COc1cc(O)c2c(=O)c(OC)c(-c3ccccc3)oc2c1` [FV4]: in the data set with DENV2 NGC, the inhibition at 10 µM was determined as 38 ± 6.48% and the inhibition at 25 µM amounted to 61 ± 3%.

For `COc1cc(OC)c2c(=O)cc(-c3ccccc3)oc2c1` [FV6], in the data set with DENV2 NGC, the inhibition at 10 µM came to 55 ± 3% and the inhibition at 25 µM was 76 ± 7.35%.

With `O=c1cc(-c2ccccc2)oc2c(I)c(O)c(I)c(O)c12` [FV14, 6,8-diiodo-5,7-dihydroxyflavone], the viability at 48 h in [7] is greater than 80%. Also, the viability at 48 h, 10 µM in data set [1] (LLC/MK2 cells) is 60.2 ± 3.31%; in [2] (THP-1 cells), 86.1 ± 2.76%; in data set [3] (HepG2 cells), 85.6 ± 3.04%; in data set [4] (Vero cells) it was 45.4 ± 1.17%; in [5] (HEK-293 cells), 80.5 ± 3.18%. In addition, the viability at 48 h, 25 µM in data set [1] (LLC/MK2 cells) was 60.9 ± 3.57%; in data set [2] (THP-1 cells), 93.9 ± 7%; in data set [3] (HepG2 cells), 87.01 ± 0.52%; in [4] (Vero cells) it was 34.1 ± 2.18%; in [5] (HEK-293 cells), 48.4 ± 5.76%. The CC50 at 48 h in data set [1] (LLC/MK2 cells, 48 h incubation, read-out: CC50 (cytotoxic concentration)) was 42.5 ± 2.53 µM. Also, the “effect of long term incubation on cytotoxicity” value with LLC/MK2 cells is “significantly greater cytotoxicity at 120 h”. For the same compound, the “S.I. Selectivity index (CC50/EC50)” value amounted to 34.50 in the data set on DENV4 (c0036) (DENV4 (c0036), CC50 in LLC/MK2); 32.14 in the data set on ZIKV (SV0010/15) (CC50 in LLC/MK2); 43.64 in the data set on DENV3 (16562) (DENV3 (16562), CC50 in LLC/MK2); 20.37 in the data set on DENV2 (NGC) (DENV2 (NGC), CC50 in LLC/MK2). For the same compound, the half-maximal effective concentration (EC50) was 1.29 ± 0.6 µM with DENV4 (c0036) (Dengue virus, DENV4, LLC-MK2); 2.3 ± 0.92 µM in the data set on DENV1 (16007); 1.39 ± 0.11 µM in the data set with ZIKV (SV0010/15) (Zika virus, LLC/MK2, plaque assay in 24-well plates); 1.02 ± 0.31 µM in the data set on DENV3 (16562) (Dengue virus, DENV3, LLC-MK2); 2.19 ± 0.31 µM in the data set with DENV2 (NGC) (Dengue virus, DENV2, LLC-MK2). The “sensitivity of Vero cells to the compound” value with Vero cells is “very sensitive”. In addition, in the data set with DENV2 NGC, the “inhibition of virus production” value is greater than 99%. In addition, the inhibition at 10 µM with DENV2 NGC amounted to 99.48 ± 0.43%. Further, the inhibition at 25 µM with DENV2 NGC amounted to 99.63 ± 0.03%.

On to `O=C1C[C@@H](c2ccc(O)cc2)Oc2cc(O)cc(O)c21` [Naringenin], for which the concentration giving a half-maximal response (EC50) in the data set with DENV2 was 18 µM.

As to `O=c1cc(-c2ccccc2)oc2cc(O)c(O)c(O)c12` [baicalein], the EC50 with DENV2 was 23.9 µM.

For the compound `O=c1c(O)c(-c2ccc(O)c(O)c2)oc2cc(O)ccc12` [fisetin], the EC50 in the data set on DENV2 is 192 µM.

Take `O=c1c(O)c(-c2ccc(O)c(O)c2)oc2cc(O)cc(O)c12` [quercetin]: in the data set on DENV2, the EC50 was 118 µM.

Turning to `NC(=O)c1ncn([C@@H]2O[C@H](CO)[C@@H](O)[C@H]2O)n1` [ribavirin, reference compound], in data set [8], the inhibition at 5 µM was 87.4 ± 10.7% and the inhibition at 10 µM turned out to be 89.9 ± 4.83%.

Source of the values: paper PMC5651866, “Halogenated Chrysins Inhibit Dengue and Zika Virus Infectivity” (Scientific Reports, 2017).
